The assay addresses CB1 (mutant) (Homo sapiens, UniProt P21554). Put plainly: R-SAT functional receptor assay, CB1 (mutant, truncated after amino acid 417). In kind it is cell-based. The settings on record: R-SAT CB1; for IC50: receptor form (mutant or wild-type) not stated; for Emax / % Inhibition: receptor form not stated, relative to SR141716 (100%); for Emax: read-out: % Inhibition.
[1] abbreviates: Appendix A, read-out: pIC50 (converted).

Data on 56 molecules can be found in patent US20080090805A1, “CB-1 MODULATING COMPOUNDS AND THEIR USE” (ACADIA PHARMACEUTICALS INC., priority 2005, published 2008).

Like-named read-outs stand apart in the source and are kept apart here.

CB1 (mutant), sequence (P21554 1-417, change not shown): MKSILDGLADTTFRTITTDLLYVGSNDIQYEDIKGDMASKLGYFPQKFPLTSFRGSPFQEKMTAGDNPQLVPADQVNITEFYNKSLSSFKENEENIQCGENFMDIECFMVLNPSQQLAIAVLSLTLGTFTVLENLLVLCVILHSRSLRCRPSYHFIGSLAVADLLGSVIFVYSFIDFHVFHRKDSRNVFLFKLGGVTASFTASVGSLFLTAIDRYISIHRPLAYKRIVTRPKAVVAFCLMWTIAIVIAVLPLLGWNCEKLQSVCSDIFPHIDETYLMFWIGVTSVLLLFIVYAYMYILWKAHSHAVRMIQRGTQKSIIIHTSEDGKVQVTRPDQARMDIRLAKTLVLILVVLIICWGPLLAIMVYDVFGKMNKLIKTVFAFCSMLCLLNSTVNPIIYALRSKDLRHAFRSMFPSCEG

For `CCCCNC(=O)c1ccc2c(c1)N=C(c1ccc(Cl)s1)c1cc(Cl)ccc1S2` [drawing 995], the IC50 under setting [1] is 25.1 nM. The Emax (Appendix A) was found to be 107%.
The like results for `CCCCNC(=O)c1ccc2c(c1)N=C(c1cccc(Cl)c1)c1cc(Cl)ccc1S2` [drawing 997] were, in that order, 25.1 nM and 110%.
The % Inhibition is the change of the read-out against control, counted positive when it falls. Lower therefore signals little suppression. As for `O=C(NCCc1ccccn1)c1ccc2c(c1)N=C(c1cccc(Cl)c1)c1ccccc1S2` [drawing 999], the IC50 under setting [1] is 25.1 nM. The “% Inhibition” value (Appendix A) came to 91%.
As for `O=C(NCCc1cccc(Cl)c1)c1ccc2c(c1)N=C(C1CCCCC1)c1ccccc1S2` [drawing 1001], the IC50 under setting [1] was 25.1 nM. The Emax (Appendix A) came to 102%.
Turning to `CCCC1=Nc2cc(C(=O)NCCc3ccc(Cl)cc3)ccc2Sc2ccccc21` [drawing 1003], the Emax (Appendix A) is 110%. In addition, the IC50 (pIC50, Appendix A) is 25.1 nM.
In the case of `O=C(NCCc1ccccn1)c1ccc2c(c1)N=C(c1ccc(Cl)cc1)c1ccccc1S2` [drawing 1005], the IC50 under setting [1] is 25.1 nM. For the setting “Appendix A”, the “% Inhibition” value came out at 92%.
In the case of `O=C(NCc1cccnc1)c1ccc2c(c1)N=C(c1ccc(Br)cc1)c1ccccc1S2` [drawing 1007], under setting [1], the IC50 is 25.1 nM. Moreover, the Emax (Appendix A) came out at 106%.
The like results for `O=C(NN1CCCCCC1)c1ccc2c(c1)N=C(c1ccc(F)cc1)c1ccccc1S2` [drawing 1009] were, in that order, 25.1 nM and 92%.
For `CCCCNC(=O)c1ccc2c(c1)N=C(c1ccc(Cl)s1)c1ccc(F)cc1S2` [drawing 1010] the same measures were 501 nM and 101%.
For `O=C(NCc1ccccc1Cl)c1ccc2c(c1)N=C(N1CCCCC1)c1ccccc1S2` [drawing 1013] the same measures were 25.1 nM and 117%.
Consider `O=C(NCc1ccccc1)c1ccc2c(c1)N=C(c1ccccc1F)c1ccccc1S2` [drawing 1015], for which, under setting [1], the IC50 was 25.1 nM. In addition, the Emax (Appendix A) was determined as 96%.
For `CC(CNC(=O)c1ccc2c(c1)N=C(N1CCCCC1)c1ccccc1S2)c1ccccc1` (stereo not shown) [drawing 1017] the same measures were 25.1 nM and 105%.
For `O=C(NCCc1ccccc1)c1ccc2c(c1)N=C(N1CCCCC1)c1ccccc1S2` [drawing 1019] the same measures were 25.1 nM and 106%.
For `CC(C)CNC(=O)c1ccc2c(c1)N=C(c1ccccn1)c1ccccc1S2` [drawing 1021] the same measures were 25.1 nM and 96%.
`O=C(NCCc1ccccc1)c1ccc2c(c1)N=C(c1ccccc1)c1ccccc1S2` [drawing 1023]: under setting [1], the IC50 was 25.1 nM. The Emax (Appendix A) was determined as 106%.
For `COCCNC(=O)c1ccc2c(c1)N=C(c1cccc(F)c1)c1ccccc1S2` [drawing 1025] the same measures were 25.1 nM and 115%.
The like results for `O=C(NCCc1cccnc1)c1ccc2c(c1)N=C(c1ccc(Cl)s1)c1ccccc1S2` [drawing 1029] were, in that order, 25.1 nM and 110%.
The like results for `O=C(NCCc1ccncc1)c1ccc2c(c1)N=C(c1ccc(F)cc1)c1ccccc1S2` [drawing 1031] were, in that order, 25.1 nM and 94%.
With `O=C(NCCc1cccnc1)c1ccc2c(c1)N=C(c1ccc(F)cc1)c1ccccc1S2` [drawing 1033], the IC50 under setting [1] was 25.1 nM. Moreover, where the note is “Appendix A”, the Emax was determined as 119%.
For `O=C(NCc1cccnc1)c1ccc2c(c1)N=C(c1ccccc1F)c1ccccc1S2` [drawing 1035] the same measures were 25.1 nM and 114%.
Turning to `O=C(NCc1cccs1)c1ccc2c(c1)N=C(c1ccccn1)c1ccccc1S2` [drawing 1037], the IC50 under setting [1] is 25.1 nM. Besides, the Emax (Appendix A) turned out to be 118%.
For `Cc1ccc(CNC(=O)c2ccc3c(c2)N=C(c2ccc(Cl)cc2F)c2ccccc2S3)o1` [drawing 1039] the same measures were 31.6 nM and 76%.
For the molecule `O=C(NN1CCCCCC1)c1ccc2c(c1)N=C(c1ccc(Cl)cc1)c1ccccc1S2` [drawing 1041], the IC50 under setting [1] is 31.6 nM. The “% Inhibition” value (Appendix A) was found to be 96%.
Regarding `Cc1ccsc1C1=Nc2cc(C(=O)NN3CCCCC3)ccc2Sc2ccccc21` [drawing 1045], the IC50 under setting [1] is 31.6 nM. For the same molecule, the Emax (Appendix A) was 100%.
For `Cc1ccsc1C1=Nc2cc(C(=O)NCCC(F)(F)F)ccc2Sc2ccccc21` [drawing 1047] the same measures were 31.6 nM and 101%.
For `O=C(NCCc1ccccn1)c1ccc2c(c1)N=C(c1ccc(Cl)cc1)c1ccccc1S2` [drawing 1049] the same measures were 31.6 nM and 93%.
As to `CCCC1=Nc2cc(C(=O)NCCc3cc(OC)ccc3OC)ccc2Sc2ccccc21` [drawing 1051], under setting [1], the IC50 was 31.6 nM. For the same molecule, the Emax (Appendix A) amounted to 98%.
The like results for `CC(C)CCNC(=O)c1ccc2c(c1)N=C(c1ccccc1Cl)c1ccccc1S2` [drawing 1053] were, in that order, 31.6 nM and 105%.
For `CCCNC(=O)c1ccc2c(c1)N=C(c1ccc(Br)cc1)c1ccccc1S2` [drawing 1055] the same measures were 31.6 nM and 92%.
The like results for `O=C(NCc1ccc(Cl)cc1Cl)c1ccc2c(c1)N=C(c1ccc(F)cc1)c1ccccc1S2` [drawing 1057] were, in that order, 31.6 nM and 96%.
Regarding `O=C(NCc1ccccc1Cl)c1ccc2c(c1)N=C(C1CCCCC1)c1ccccc1S2` [drawing 1059], under setting [1], the IC50 was 31.6 nM. Moreover, the Emax (Appendix A) is 91%.
As for `O=C(NC1CCCCC1)c1ccc2c(c1)N=C(c1ccc(F)cc1)c1ccccc1S2` [drawing 1065], under setting [1], the IC50 was 31.6 nM. In addition, under “Appendix A”, the Emax is 111%.
In the case of `CC(C)CCNC(=O)c1ccc2c(c1)N=C(c1ccccc1F)c1ccccc1S2` [drawing 1067], under setting [1], the IC50 is 31.6 nM. For the setting “Appendix A”, the Emax is 117%.
For `O=C(NCCc1cccc(Cl)c1)c1ccc2c(c1)N=C(c1ccccc1)c1ccccc1S2` [drawing 1069] the same measures were 31.6 nM and 102%.
The like results for `O=C(NCCc1ccccn1)c1ccc2c(c1)N=C(c1ccc(Cl)c(Cl)c1)c1ccccc1S2` [drawing 1077] were, in that order, 31.6 nM and 93%.
For `CC(C)NC(=O)c1ccc2c(c1)N=C(c1ccc(F)cc1)c1ccccc1S2` [drawing 1079] the same measures were 31.6 nM and 97%.
`COCCNC(=O)c1ccc2c(c1)N=C(c1ccc(Br)cc1)c1ccccc1S2` [drawing 1081]: under setting [1], the IC50 is 31.6 nM. The Emax (Appendix A) came out at 69%.
The like results for `O=C(NCc1cccc(Cl)c1)c1ccc2c(c1)N=C(c1ccccc1F)c1ccccc1S2` [drawing 1083] were, in that order, 31.6 nM and 99%.
Take `O=C(NCCc1ccc(Cl)cc1)c1ccc2c(c1)N=C(c1ccccc1F)c1ccccc1S2` [drawing 1085]: under “Appendix A”, the Emax worked out at 101%. This molecule also had an IC50 (pIC50, Appendix A) of 31.6 nM.
The like results for `O=C(NCc1ccccc1Cl)c1ccc2c(c1)N=C(c1ccc(Cl)cc1)c1ccccc1S2` [drawing 1089] were, in that order, 95% and 31.6 nM.
On to `O=C(NCc1cccnc1)c1ccc2c(c1)N=C(c1ccc(Cl)cc1)c1ccccc1S2` [drawing 1093], for which, under setting [1], the IC50 is 31.6 nM. In addition, the Emax (Appendix A) amounted to 88%.
For `O=C(NCCc1ccncc1)c1ccc2c(c1)N=C(c1ccc(Cl)c(Cl)c1)c1ccccc1S2` [drawing 1095] the same measures were 31.6 nM and 119%.
On to `O=C(NCCc1ccncc1)c1ccc2c(c1)N=C(c1cccc(F)c1)c1ccccc1S2` [drawing 1097], for which, for the setting “Appendix A”, the Emax is 106%. Moreover, where the note is “pIC50, Appendix A”, the IC50 was 31.6 nM.
As for `CCOC(=O)N1CCC(NC(=O)c2ccc3c(c2)N=C(c2ccc(Cl)cc2)c2ccccc2S3)CC1` [drawing 1101], the IC50 under setting [1] was 31.6 nM. Besides, the Emax (Appendix A) turned out to be 109%.
For `CC(NC(=O)c1ccc2c(c1)N=C(c1ccc(Cl)cc1)c1ccccc1S2)c1ccccc1` (stereo not shown) [drawing 1107] the same measures were 39.8 nM and 88%.
For `CCCCNC(=O)c1ccc2c(c1)N=C(c1ccc(Cl)s1)c1ccc(Cl)cc1S2` [drawing 1109] the same measures were 39.8 nM and 104%.
The like results for `CCCCNC(=O)c1ccc2c(c1)N=C(c1ccc(Cl)cc1)c1cc(F)ccc1S2` [drawing 1111] were, in that order, 39.8 nM and 98%.
`CC(C)CNC(=O)c1ccc2c(c1)N=C(c1ccc(Cl)cc1)c1ccc(Cl)cc1S2` [drawing 1113]: under setting [1], the IC50 was 39.8 nM. Besides, the Emax (Appendix A) came to 106%.
Turning to `CCCC1=Nc2cc(C(=O)NC3CCCC(C)C3C)ccc2Sc2ccccc21` (stereo not shown) [drawing 1115], the Emax (Appendix A) came out at 101%. Under “pIC50, Appendix A”, this molecule had an IC50 of 39.8 nM.
For the molecule `CCN(CCNC(=O)c1ccc2c(c1)N=C(c1ccccc1F)c1ccccc1S2)c1ccccc1` [drawing 1117], under setting [1], the IC50 was 39.8 nM. For the same molecule, under “Appendix A”, the Emax was determined as 100%.
In the case of `O=C(NCCc1ccc(Cl)cc1)c1ccc2c(c1)N=C(N1CCC(F)CC1)c1ccccc1S2` [drawing 1119], under setting [1], the IC50 was 39.8 nM. Also, the Emax (Appendix A) worked out at 103%.
The like results for `O=C(NCc1ccccc1Cl)c1ccc2c(c1)N=C(c1ccc(F)cc1)c1ccccc1S2` [drawing 1121] were, in that order, 39.8 nM and 89%.
The like results for `O=C(NCc1ccc(Cl)cc1Cl)c1ccc2c(c1)N=C(N1CCCCC1)c1ccccc1S2` [drawing 1123] were, in that order, 39.8 nM and 101%.
For `O=C(NCc1ccc(F)cc1)c1ccc2c(c1)N=C(c1ccc(Cl)cc1)c1ccccc1[S+]2[O-]` (stereo not shown) [drawing 1125] the same measures were 39.8 nM and 98%.
For `O=C(NN1CCCCC1)c1ccc2c(c1)N=C(c1cccc(Cl)c1)c1ccccc1S2` [drawing 1127], under setting [1], the IC50 was 39.8 nM. For the same molecule, under “Appendix A”, the Emax is 106%.
For `CCCCNC(=O)c1ccc2c(c1)N=C(c1ccccc1F)c1ccccc1S2` [drawing 1129], the IC50 under setting [1] was 39.8 nM. Besides, for the setting “Appendix A”, the Emax was 96%.
